According to ChEMBL document CHEMBL3739342, “Varitatin A, a Highly Modified Fatty Acid Amide from Penicillium variabile Cultured with a DNA Methyltransferase Inhibitor” (J Nat Prod, 2015):
Active and inactive are the calls of the source. The calls are words filed in the database; no cut-off is given here.

What was measured:
[1] = Cytotoxicity against human HCT116 cells by SRB assay; assay type: functional, cell-based; conditions: HCT-116
[2] = species on record: Homo sapiens; experiment: Inhibition of PTK (unknown origin) at 1 uM by ELISA
[3] = biological target: Receptor tyrosine-protein kinase erbB-4 (Homo sapiens) (UniProt Q15303); experiment: Inhibition of ErbB4 (unknown origin) at 1 uM by ELISA
Receptor tyrosine-protein kinase erbB-4 (Homo sapiens), sequence (Q15303 whole entry): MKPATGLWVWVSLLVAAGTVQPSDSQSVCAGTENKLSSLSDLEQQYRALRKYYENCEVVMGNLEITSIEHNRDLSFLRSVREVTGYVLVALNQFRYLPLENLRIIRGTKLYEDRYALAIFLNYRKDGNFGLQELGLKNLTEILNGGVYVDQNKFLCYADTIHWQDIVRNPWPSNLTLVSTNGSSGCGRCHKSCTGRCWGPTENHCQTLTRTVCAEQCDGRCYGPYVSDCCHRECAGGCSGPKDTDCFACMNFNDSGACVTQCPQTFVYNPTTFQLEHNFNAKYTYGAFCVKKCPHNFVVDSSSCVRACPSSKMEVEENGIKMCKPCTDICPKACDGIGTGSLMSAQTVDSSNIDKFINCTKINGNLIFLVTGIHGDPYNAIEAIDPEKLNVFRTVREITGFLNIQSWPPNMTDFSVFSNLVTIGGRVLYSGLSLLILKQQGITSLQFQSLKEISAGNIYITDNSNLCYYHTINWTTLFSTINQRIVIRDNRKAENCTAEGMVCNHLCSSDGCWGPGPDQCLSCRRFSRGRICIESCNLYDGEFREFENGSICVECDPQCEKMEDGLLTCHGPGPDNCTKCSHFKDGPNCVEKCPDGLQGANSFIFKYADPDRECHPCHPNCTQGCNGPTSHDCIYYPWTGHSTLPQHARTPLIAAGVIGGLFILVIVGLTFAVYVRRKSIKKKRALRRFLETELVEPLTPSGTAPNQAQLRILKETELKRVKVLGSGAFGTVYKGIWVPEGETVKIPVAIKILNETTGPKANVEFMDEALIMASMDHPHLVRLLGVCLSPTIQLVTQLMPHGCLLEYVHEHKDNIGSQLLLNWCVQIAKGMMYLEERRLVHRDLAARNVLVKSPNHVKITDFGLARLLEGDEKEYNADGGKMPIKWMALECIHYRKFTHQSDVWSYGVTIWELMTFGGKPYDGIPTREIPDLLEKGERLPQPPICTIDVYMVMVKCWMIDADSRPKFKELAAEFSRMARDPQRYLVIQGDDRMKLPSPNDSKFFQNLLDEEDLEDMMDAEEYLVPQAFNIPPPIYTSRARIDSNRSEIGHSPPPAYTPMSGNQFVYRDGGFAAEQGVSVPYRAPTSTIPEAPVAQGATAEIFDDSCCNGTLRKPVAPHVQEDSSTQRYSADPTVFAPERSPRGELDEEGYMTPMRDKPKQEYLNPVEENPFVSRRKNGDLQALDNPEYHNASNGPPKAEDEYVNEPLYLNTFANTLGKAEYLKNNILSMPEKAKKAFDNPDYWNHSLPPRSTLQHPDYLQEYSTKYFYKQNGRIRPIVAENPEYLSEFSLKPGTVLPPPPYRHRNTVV

[4] = biological target: Platelet-derived growth factor receptor beta (Homo sapiens) (UniProt P09619); experiment: Inhibition of PDGFR-beta (unknown origin) at 1 uM by ELISA
Platelet-derived growth factor receptor beta (Homo sapiens), sequence (P09619 whole entry): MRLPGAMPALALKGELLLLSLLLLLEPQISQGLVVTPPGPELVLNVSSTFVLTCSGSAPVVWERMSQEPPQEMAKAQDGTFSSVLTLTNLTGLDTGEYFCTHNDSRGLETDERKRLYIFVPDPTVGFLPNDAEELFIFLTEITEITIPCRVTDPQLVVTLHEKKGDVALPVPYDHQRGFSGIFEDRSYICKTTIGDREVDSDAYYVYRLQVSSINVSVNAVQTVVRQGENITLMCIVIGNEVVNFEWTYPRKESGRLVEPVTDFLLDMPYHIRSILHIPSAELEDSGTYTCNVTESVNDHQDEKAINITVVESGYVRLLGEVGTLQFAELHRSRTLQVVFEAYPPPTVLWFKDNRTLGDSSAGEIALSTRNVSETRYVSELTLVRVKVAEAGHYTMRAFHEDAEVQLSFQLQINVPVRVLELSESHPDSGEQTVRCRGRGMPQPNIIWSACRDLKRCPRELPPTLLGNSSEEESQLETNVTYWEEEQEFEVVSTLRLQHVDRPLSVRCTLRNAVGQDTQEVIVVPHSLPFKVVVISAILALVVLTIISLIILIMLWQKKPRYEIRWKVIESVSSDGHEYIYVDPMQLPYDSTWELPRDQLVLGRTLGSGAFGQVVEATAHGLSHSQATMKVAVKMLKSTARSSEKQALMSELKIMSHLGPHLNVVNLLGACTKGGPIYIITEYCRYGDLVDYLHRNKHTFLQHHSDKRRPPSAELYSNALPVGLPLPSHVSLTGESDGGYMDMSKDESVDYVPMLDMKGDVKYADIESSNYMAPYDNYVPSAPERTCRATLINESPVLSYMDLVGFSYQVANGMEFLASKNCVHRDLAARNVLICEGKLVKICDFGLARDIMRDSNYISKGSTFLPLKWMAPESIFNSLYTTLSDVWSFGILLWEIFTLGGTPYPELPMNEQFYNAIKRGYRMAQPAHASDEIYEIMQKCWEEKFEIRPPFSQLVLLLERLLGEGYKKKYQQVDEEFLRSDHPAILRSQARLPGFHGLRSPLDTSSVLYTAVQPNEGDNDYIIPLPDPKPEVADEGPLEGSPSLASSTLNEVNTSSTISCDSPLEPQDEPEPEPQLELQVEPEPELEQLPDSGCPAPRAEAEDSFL

Compound	IC50 [1]	inhibition [2]	inhibition [3]	inhibition [4]
COc1cccc2c1C(=O)c1c(O)c3c(c(O)c1C2=O)C[C@@](O)(C(=O)CO)C[C@@H]3O[C@H]1C[C@H](N)[C@H](O)[C@H](C)O1 [DOXORUBICIN]	0.2 µM	–	–	–
CC[C@@H](C)/C=C/CCCC/C=C/C=C/C=C/C(=O)N[C@@H]1CO[C@@]2(O)C=C[C@@H](Cl)[C@H](O)[C@@]2(O)C1	2.8 µM	Active	40%	50%
